What follows are compounds tested against S. aureus GyrB ATPase (Staphylococcus aureus, UniProt P0A0K8) (assay: S. aureus (SAU) GyrB ATPase inhibition, malachite green phosphate detection (E. coli GyrA + S. aureus GyrB)). Details: compound concentration of 1.0 μM unless otherwise noted; average value where assay was carried out more than once; read-out: S. aureus (SAU) GyrB ATPase % Inhibition.
Chain of S. aureus GyrB ATPase (P0A0K8 whole entry): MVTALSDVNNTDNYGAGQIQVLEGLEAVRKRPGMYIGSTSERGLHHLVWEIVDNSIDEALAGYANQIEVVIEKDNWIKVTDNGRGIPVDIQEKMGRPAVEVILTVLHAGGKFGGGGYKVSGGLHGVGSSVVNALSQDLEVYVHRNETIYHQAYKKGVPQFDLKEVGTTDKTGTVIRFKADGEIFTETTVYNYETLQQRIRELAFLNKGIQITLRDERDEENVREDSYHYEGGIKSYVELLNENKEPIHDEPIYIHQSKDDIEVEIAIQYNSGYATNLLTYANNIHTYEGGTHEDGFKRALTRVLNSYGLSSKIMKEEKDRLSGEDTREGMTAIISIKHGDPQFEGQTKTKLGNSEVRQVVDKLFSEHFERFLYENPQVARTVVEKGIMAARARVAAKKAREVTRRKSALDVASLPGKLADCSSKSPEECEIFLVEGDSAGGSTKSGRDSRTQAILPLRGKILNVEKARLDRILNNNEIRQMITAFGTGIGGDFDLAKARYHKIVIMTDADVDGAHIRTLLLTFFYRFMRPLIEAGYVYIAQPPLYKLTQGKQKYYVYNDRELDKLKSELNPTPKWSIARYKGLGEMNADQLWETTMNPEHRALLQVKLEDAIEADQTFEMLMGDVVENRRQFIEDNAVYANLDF
Chain of S. aureus GyrB ATPase (P0AES4 whole entry, further chain): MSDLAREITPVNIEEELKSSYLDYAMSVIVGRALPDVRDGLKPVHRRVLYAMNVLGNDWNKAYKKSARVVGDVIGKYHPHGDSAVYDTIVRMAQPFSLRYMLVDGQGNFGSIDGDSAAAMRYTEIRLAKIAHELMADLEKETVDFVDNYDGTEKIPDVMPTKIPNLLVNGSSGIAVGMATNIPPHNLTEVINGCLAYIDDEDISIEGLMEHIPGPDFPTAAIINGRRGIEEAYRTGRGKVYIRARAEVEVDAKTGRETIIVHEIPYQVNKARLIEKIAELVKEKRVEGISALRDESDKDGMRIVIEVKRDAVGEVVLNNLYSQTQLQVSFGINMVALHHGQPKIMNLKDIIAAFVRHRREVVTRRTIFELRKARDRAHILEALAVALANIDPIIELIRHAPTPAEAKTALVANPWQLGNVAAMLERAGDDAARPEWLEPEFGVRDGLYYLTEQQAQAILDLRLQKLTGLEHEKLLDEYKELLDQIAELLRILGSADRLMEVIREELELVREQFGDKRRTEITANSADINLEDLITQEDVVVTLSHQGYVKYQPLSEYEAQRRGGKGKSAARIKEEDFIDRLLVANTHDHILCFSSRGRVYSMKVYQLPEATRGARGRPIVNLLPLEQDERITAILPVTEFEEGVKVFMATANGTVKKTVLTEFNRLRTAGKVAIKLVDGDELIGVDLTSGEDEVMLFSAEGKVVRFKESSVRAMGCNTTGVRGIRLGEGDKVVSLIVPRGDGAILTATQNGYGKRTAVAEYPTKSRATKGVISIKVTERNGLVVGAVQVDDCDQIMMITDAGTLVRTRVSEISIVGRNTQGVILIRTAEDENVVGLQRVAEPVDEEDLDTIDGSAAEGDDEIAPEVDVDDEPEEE
Assay type: biochemical
Outline: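 E. coli GyrA and S. aureus GyrB (1.25 nM each) with 500 μM ATP and 5 μg/ml sheared salmon sperm DNA in 50 mM Hepes pH 7.5, 8.0 mM MgCl2. Released phosphate detected with ammonium molybdate/malachite green at 650 nm; 2% DMSO as 0% and 2 μM novobiocin as 100% inhibition; IC50 from 10 concentrations.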
Work on `O=C(Nc1cc(-c2nc(C(F)(F)F)cs2)c(-c2cncc(-c3n[nH]c(=O)o3)c2)cn1)NC1CCCCC1` [Example 46, 1-cyclohexyl-3-(5′-(5-oxo-4,5-dihydro-1,3,4-oxadiazol-2-yl)-4-(4-(trifluoromethyl)thiazol-2-yl)-3,3′-bipyridin-6-yl)urea] yielded an inhibition at 1 µM of -1%.
With `CCNC(=O)Nc1cc(-c2nc(C(F)(F)F)cs2)c(-c2ccnc(-c3n[nH]c(=O)o3)c2)cn1` [Example 33, 1-ethyl-3-(2′-(5-oxo-4,5-dihydro-1,3,4-oxadiazol-2-yl)-4-(4-(trifluoromethyl)thiazol-2-yl)-3,4′-bipyridin-6-yl)urea] the inhibition at 1 µM was 117%.
With `CCNC(=O)Nc1cc(-c2nnc(-c3ccccc3)o2)c(-c2cnc(-c3n[nH]c(=O)o3)cn2)cn1` [Example 195] the inhibition at 1 µM was 98%.
`CCNC(=O)Nc1cc(-c2nc(-c3ccccc3)cs2)c(-c2cncc(-c3n[nH]c(=O)o3)c2)cn1` [Example 11, 1-ethyl-3-(5′-(5-oxo-4,5-dihydro-1,3,4-oxadiazol-2-yl)-4-(4-phenylthiazol-2-yl)-3,3′-bipyridin-6-yl)urea] gave an inhibition at 1 µM of 107%.
`CCNC(=O)Nc1cc(-c2nc(C(F)(F)F)cs2)c(-c2cc(-c3n[nH]c(=O)o3)nc(N3CCOCC3)c2)cn1` [Example 86, 1-ethyl-3-(2′-morpholino-6′-(5-oxo-4,5-dihydro-1,3,4-oxadiazol-2-yl)-4-(4-(trifluoromethyl)thiazol-2-yl)-3,4′-bipyridin-6-yl)urea] gave an inhibition at 1 µM of 97%.
Work on `CCNC(=O)Nc1cc(-c2nc(C(F)(F)F)cs2)c(-c2cc(-c3n[nH]c(=O)o3)cnc2OCCC2CCCN2C)cn1` (stereo not shown) [Example 224] yielded an inhibition at 1 µM of 94%.
For `CCCNC(=O)Nc1cc(-c2nc(C(F)(F)F)cs2)c(-c2cc(-c3nnc(C)o3)cnc2OCCN(C(C)C)C(C)C)cn1` [Example 123, 1-(2′-(2-(Diisopropylamino)ethoxy)-5′-(5-methyl-1,3,4-oxadiazol-2-yl)-4-(4-(trifluoromethyl)thiazol-2-yl)-3,3′-bipyridin-6-yl)-3-propylurea], the inhibition at 1 µM was 78%.
`CCNC(=O)Nc1cc(-c2nc(C(F)(F)F)cs2)c(-c2cc(-c3nnc(C)o3)cnc2OC2CCOCC2)cn1` [Example 141] was tested, and the inhibition at 1 µM was 97%.
For `CCNC(=O)Nc1cc(-c2nc(-c3cccnc3OCCOC)cs2)c(-c2cc(-c3nnc(C)o3)cnc2OC2CCOCC2)cn1` [Example 232, 1-ethyl-3-(4-(4-(2-(2-methoxyethoxy)pyridin-3-yl)thiazol-2-yl)-5′-(5-methyl-1,3,4-oxadiazol-2-yl)-2′-(tetrahydro-2H-pyran-4-yloxy)-3,3′-bipyridin-6-yl)urea], the inhibition at 1 µM was 99%.
`CCNC(=O)Nc1cc(-c2nc(C(F)(F)F)c(C(=O)NC3CCCC3)s2)c(-c2cncc(-c3n[nH]c(=O)o3)c2)cn1` [Example 67, N-cyclopentyl-2-(6-(3-ethylureido)-5′-(5-oxo-4,5-dihydro-1,3,4-oxadiazol-2-yl)-3,3′-bipyridin-4-yl)-4-(trifluoromethyl)thiazole-5-carboxamide] showed an inhibition at 1 µM of 93%.
Work on `CCNC(=O)Nc1cc(-c2nc(-c3ccccc3)cs2)c(-c2nc(-c3ncccn3)c(-c3nnc(C)o3)s2)cn1` [Example 98, 1-ethyl-3-(5-(5-(5-methyl-1,3,4-oxadiazol-2-yl)-4-(pyrimidin-2-yl)thiazol-2-yl)-4-(4-phenylthiazol-2-yl)pyridin-2-yl)urea] yielded an inhibition at 1 µM of 100%.
Compound `CCNC(=O)Nc1cc(-c2nc(-c3cccc(OC)n3)cs2)c(-c2cncc(S(N)(=O)=O)c2)cn1` [Example 247, 6′-(3-ethylureido)-4′-(4-(6-methoxypyridin-2-yl)thiazol-2-yl)-3,3′-bipyridine-5-sulfonamide] has an inhibition at 1 µM of 100%.
Work on `CCNC(=O)Nc1cc(-c2nc(C(F)(F)F)cs2)c(-c2nc(-c3ncnn3C)c(-c3nnc(C)o3)s2)cn1` [Example 137, 1-Ethyl-3-(5-(5-(5-methyl-1,3,4-oxadiazol-2-yl)-4-(1-methyl-1H-1,2,4-triazol-5-yl)thiazol-2-yl)-4-(4-(trifluoromethyl)thiazol-2-yl)pyridin-2-yl)urea] yielded an inhibition at 1 µM of 101%.
`CCNC(=O)Nc1cc(-c2nc(C(F)(F)F)cs2)c(-c2cncc(-c3nnc(C)n3N)c2)cn1` [Example 283, 1-(5′-(4-amino-5-methyl-4H-1,2,4-triazol-3-yl)-4-(4-(trifluoromethyl)thiazol-2-yl)-3,3′-bipyridin-6-yl)-3-ethylurea] gave an inhibition at 1 µM of 94%.
`CCNC(=O)Nc1cc(-c2nc(C(F)(F)F)cs2)c(-c2cncc(C(=N)N)c2)cn1` [Example 164, 6′-(3-Ethylureido)-4′-(4-(trifluoromethyl)thiazol-2-yl)-3,3′-bipyridine-5-carboximidamide] showed an inhibition at 1 µM of 96%.
Work on `CCNC(=O)Nc1cc(-c2nc(C(F)(F)F)cs2)c(-c2cncc(-c3nnc(C(C)C)s3)c2)cn1` [Example 5, 1-Ethyl-3-(5′-(5-isopropyl-1,3,4-thiadiazol-2-yl)-4-(4-(trifluoromethyl)thiazol-2-yl)-3,3′-bipyridin-6-yl)urea] yielded an inhibition at 1 µM of 112%.
In the case of `CCNC(=O)Nc1cc(-c2nc(C(F)(F)F)cs2)c(-c2nc(C)cc(-c3n[nH]c(=O)o3)n2)cn1` [Example 34, 1-ethyl-3-(5-(4-methyl-6-(5-oxo-4,5-dihydro-1,3,4-oxadiazol-2-yl)pyrimidin-2-yl)-4-(4-(trifluoromethyl)thiazol-2-yl)pyridin-2-yl)urea], the inhibition at 1 µM was 93%.
Compound `CCNC(=O)Nc1cc(-c2nc(C(F)(F)F)cs2)c(-c2cncc(/C(N)=N/O)c2)cn1` [Example 163, 6′-(3-Ethylureido)-N′-hydroxy-4′-(4-(trifluoromethyl)thiazol-2-yl)-3,3′-bipyridine-5-carboximidamide] has an inhibition at 1 µM of 96%.
For `CCNC(=O)Nc1cc(-c2nc(C(F)(F)F)cs2)c(-c2cncc(-c3nnc([C@@H](N)C(C)C)o3)c2)cn1` [Example 183], the inhibition at 1 µM was 96%.
In the case of `CCCNC(=O)Nc1cc(-c2nc(C(F)(F)F)cs2)c(-c2cncc(-c3n[nH]c(=O)o3)c2)cn1` [Example 44, 1-(5′-(5-oxo-4,5-dihydro-1,3,4-oxadiazol-2-yl)-4-(4-(trifluoromethyl)thiazol-2-yl)-3,3′-bipyridin-6-yl)-3-propylurea], the inhibition at 1 µM was 96%.
With `CCNC(=O)Nc1cc(-c2nc(-c3ccccc3)cs2)c(-c2cc(OCC)nc(-c3nnc(C)o3)c2)cn1` [Example 78, 1-(2′-ethoxy-6′-(5-methyl-1,3,4-oxadiazol-2-yl)-4-(4-phenylthiazol-2-yl)-3,4′-bipyridin-6-yl)-3-ethylurea] the inhibition at 1 µM was 99%.
Work on `CCNC(=O)Nc1cc(-c2nc(-c3ccncc3)cs2)c(-c2cncc(-c3n[nH]c(=O)o3)c2)cn1` [Example 39, N-ethyl-N′-[5′-(5-oxo-4,5-dihydro-1,3,4-oxadiazol-2-yl)-4-(4-pyridin-4-yl-1,3-thiazol-2-yl)-3,3′-bipyridin-6-yl]urea] yielded an inhibition at 1 µM of 102%.
For `CCNC(=O)Nc1cc(-c2nc(C(F)(F)F)cs2)c(-c2cccc(-n3cccn3)n2)cn1` [Example 29], the inhibition at 1 µM was 114%.
Work on `CCNC(=O)Nc1cc(-c2nnc(-c3ccccc3)o2)c(-c2ccnc(-c3n[nH]c(=O)o3)c2)cn1` [Example 192] yielded an inhibition at 1 µM of 101%.
For `CCNC(=O)Nc1cc(-c2nc(C(F)(F)F)cs2)c(-c2cncc(-c3nnc(OCC)o3)c2)cn1` [Example 271, 1-(5′-(5-ethoxy-1,3,4-oxadiazol-2-yl)-4-(4-(trifluoromethyl)thiazol-2-yl)-3,3′-bipyridin-6-yl)-3-ethylurea], the inhibition at 1 µM was 100%.
For `CCNC(=O)Nc1cc(-c2cc(C(F)(F)F)nn2C)c(-c2cncc(-c3n[nH]c(=O)o3)c2)cn1` [Example 146], the inhibition at 1 µM was 97%.
`CCNC(=O)Nc1cc(-c2nc(C(F)(F)F)cs2)c(-c2ccnc(-c3nnc([C@@H]4COCCN4)o3)c2)cn1` [Example 242, (S)-1-ethyl-3-(2′-(5-(morpholin-3-yl)-1,3,4-oxadiazol-2-yl)-4-(4-(trifluoromethyl)thiazol-2-yl)-3,4′-bipyridin-6-yl)urea] gave an inhibition at 1 µM of 118%.
In the case of `CCNC(=O)Nc1cc(-c2nc(-c3ccccn3)cs2)c(-c2cncc(-c3n[nH]c(=O)o3)c2)cn1` [Example 10, N-ethyl-N′-[5′-(5-oxo-4,5-dihydro-1,3,4-oxadiazol-2-yl)-4-(4-pyridin-2-yl-1,3-thiazol-2-yl)-3,3′-bipyridin-6-yl]urea], the inhibition at 1 µM was 95%.
Work on `CCNC(=O)Nc1cc(-c2nc(C(F)(F)F)cs2)c(-c2cncc(C3=NNC(=O)CO3)c2)cn1` [Example 282, 1-ethyl-3-(5′-(5-oxo-5,6-dihydro-4H-1,3,4-oxadiazin-2-yl)-4-(4-(trifluoromethyl)thiazol-2-yl)-3,3′-bipyridin-6-yl)urea] yielded an inhibition at 1 µM of 96%.
With `CCNC(=O)Nc1cc(-c2nc(C(F)(F)F)cs2)c(-c2cc(-c3n[nH]c(=O)o3)cnc2OC2CCOCC2)cn1` [Example 187] the inhibition at 1 µM was 100%.
`CCNC(=O)Nc1cc(-c2nc(-c3ccccc3)cs2)c(-c2nc(-c3ncccn3)c(-c3n[nH]c(=O)o3)s2)cn1` [Example 199] was tested, and the inhibition at 1 µM was 94%.
Work on `CCNC(=O)Nc1cc(-c2nc(C(F)(F)F)c(C(=O)NCCN3CCN(C)CC3)s2)c(-c2cncc(-c3n[nH]c(=O)o3)c2)cn1` [Example 63] yielded an inhibition at 1 µM of 96%.
Work on `CCNC(=O)Nc1cc(-c2nc(C(F)(F)F)cs2)c(-c2ccc(-c3n[nH]c(=O)o3)nn2)cn1` [Example 191] yielded an inhibition at 1 µM of 99%.
`CCNC(=O)Nc1cc(-c2nc(C(F)(F)F)cs2)c(-c2cnc(OC)nc2)cn1` [Example 125] gave an inhibition at 1 µM of 103%.
`CCNC(=O)Nc1cc(-c2nc(C(F)(F)F)cs2)c(-c2cc(-c3n[nH]c(=O)o3)cnc2OCCN(C(C)C)C(C)C)cn1` [Example 120] gave an inhibition at 1 µM of 118%.
Work on `CCNC(=O)Nc1cc(-c2nc(C(F)(F)F)cs2)c(-c2nc(-c3n[nH]c(=O)o3)cs2)cn1` [Example 188] yielded an inhibition at 1 µM of 97%.
`CCNC(=O)Nc1cc(-c2nc(C3CCCC3)cs2)c(-c2cncc(-c3nnc(C)o3)c2)cn1` [Example 235, 1-(4-(4-cyclopentylthiazol-2-yl)-5′-(5-methyl-1,3,4-oxadiazol-2-yl)-3,3′-bipyridin-6-yl)-3-ethylurea] was tested, and the inhibition at 1 µM was 101%.

Reference: patent US20120101100A1 (priority 2008, published 2012)
